Source: patent US20210255184A1, “Biosensor Device and Methods” (The New Zealand Institute for Plant and Food Research …, priority 2018, published 2021)

Biological target: T1, Or10a/Orco (Drosophila melanogaster, UniProt Q9VYZ1)
T1 construct: his-tag; made in house; host or cells: baculovirus-infected Sf9 cells
T1 sequence (Q9VYZ1 1-406): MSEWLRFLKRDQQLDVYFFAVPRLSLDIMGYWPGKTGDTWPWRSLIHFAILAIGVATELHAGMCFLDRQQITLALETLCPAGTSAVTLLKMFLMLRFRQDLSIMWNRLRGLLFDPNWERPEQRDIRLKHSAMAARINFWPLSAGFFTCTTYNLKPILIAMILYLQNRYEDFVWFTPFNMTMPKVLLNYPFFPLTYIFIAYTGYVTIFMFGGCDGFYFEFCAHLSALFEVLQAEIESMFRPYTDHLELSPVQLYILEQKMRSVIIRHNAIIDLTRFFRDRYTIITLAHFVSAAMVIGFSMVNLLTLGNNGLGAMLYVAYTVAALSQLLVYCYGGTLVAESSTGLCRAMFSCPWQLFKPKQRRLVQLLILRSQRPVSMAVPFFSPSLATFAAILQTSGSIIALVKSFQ
T1 sequence (Q9VNB5 1-486 partner): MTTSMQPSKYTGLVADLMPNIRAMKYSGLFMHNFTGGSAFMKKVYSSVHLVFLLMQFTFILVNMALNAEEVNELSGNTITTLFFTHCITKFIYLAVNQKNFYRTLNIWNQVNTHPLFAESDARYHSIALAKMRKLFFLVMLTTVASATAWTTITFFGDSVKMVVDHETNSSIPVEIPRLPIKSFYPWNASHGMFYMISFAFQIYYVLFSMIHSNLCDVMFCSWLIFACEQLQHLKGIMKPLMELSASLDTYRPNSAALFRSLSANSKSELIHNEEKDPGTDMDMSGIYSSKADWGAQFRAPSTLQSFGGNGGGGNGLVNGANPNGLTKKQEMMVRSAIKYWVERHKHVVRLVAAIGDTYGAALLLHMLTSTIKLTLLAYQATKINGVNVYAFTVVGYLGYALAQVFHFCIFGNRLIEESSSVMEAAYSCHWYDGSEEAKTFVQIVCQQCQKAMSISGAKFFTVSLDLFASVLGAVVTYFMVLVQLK
Experiment: EIS sensor, Or10a/Orco liposomes on gold electrode
Type: biochemical
Procedure: Prior to their use, liposomes were defrosted on ice and then destabilized by incubating with 0.2% CHAPS for 15 min at room temperature. Then 200 μg of purified odorant receptor^28 was added to 1 mg of liposomes and rotated at 10 rpm for 1 h at room temperature. Excess detergent was removed by four additions of 25 mg of Bio-Beads SM-2 (Bio-Rad, USA) and incubation at 4° C. for 30 min, 2 h, overnight and a further 2 h respectively. The Bio-Beads were removed after each incubation period. The OrX or OrX/Orco integrated liposomes were pelleted by centrifugation at 100,000 g for 1 h, and were resuspended in 500 μL of rehydration buffer. Integration of OrXs and Orco into liposomes was assessed by density gradient ultracentrifugation (DGU) using Accudenz (Accurate Chemical & Scientific Corporation, USA). The integrated liposomes were brought to 40% Accudenz by the addition of an equal volume of 80% Accudenz solution, placed at the bottom of an ultra-centrifugation tube, and overlaid with 30% Accudenz solution, and DGU buffer (25 mM HEPES pH 7.5, 100 mM NaCl, 10% glycerol). The sample was then centrifuged at 100,000 g for 4 h at 4° C. Liposomes will float to the top of the gradient after Accudenz DGU due to their low density.
2 mM MHA was prepared by dissolving 1.36 μl of MHA in 5 ml ethanol (AR grade). The cleaned electrodes were immersed into MHA solution and incubated overnight. The next day, all the electrodes were washed with ethanol and deionised water thoroughly in order to remove the unreacted acid. A 2:1 mol:mol ratio of EDC:NHS (100 mM EDC, 50 mM NHS) was prepared in 2 ml PBS (pH=6.5) solution. Then, the electrodes were covered in 100 μl of this solution at 28° C. for an hour to activate the carboxylic (COOH) groups of the MHA.
PBS solution was prepared by immersing one tablet of PBS in 200 ml of milli-Q water (according to manufacturers instructions) and filtered using 0.2-μm syringe filter. The pH of the prepared buffer solution was measured with a pH meter. OrX liposomes or OrX/Orco liposomes were diluted 100 fold in PBS buffer solution (pH=7.4) and the COOH-activated electrodes were incubated in that buffer solution at room temperature for one hour. Then, the electrodes were washed extensively with PBS buffer solution to wash out any unbound liposomes.
PBS (pH=7.4) was used as an electrolyte to conduct electrochemical measurements. PBS buffer was degassed for about 30 minutes prior to electrochemical measurements. […] OR immobilized electrodes were incubated in relevant odorant solution for ˜30 minutes each and washed gently with PBS before EIS measurements. […]

COC(=O)c1ccccc1O [methyl salicylate]
limit of detection (EIS dose response, ligand 1 aM to 100 μM): 1 fM | EC50 (Table 1, approximate): ~1 pM | Sensitivity limit (Table 1, * estimated visually from dose response graph): ~10^−15 M* | Detection Range (Table 3): 10^−15-10^−7 M
